Measured values from patent publication US9938273B2 (Plexxikon Inc., priority 2015, dated 2018).

The compounds below were run against T1, FLT3-D835Y (Homo sapiens, UniProt P36888, D835Y) (assay: AlphaScreen kinase assay with recombinant enzyme, FLT3-D835Y). Details: 8pt, GMean.
T1 construct: purchased Invitrogen PV3967
T1 sequence (P36888 27-993 D835Y): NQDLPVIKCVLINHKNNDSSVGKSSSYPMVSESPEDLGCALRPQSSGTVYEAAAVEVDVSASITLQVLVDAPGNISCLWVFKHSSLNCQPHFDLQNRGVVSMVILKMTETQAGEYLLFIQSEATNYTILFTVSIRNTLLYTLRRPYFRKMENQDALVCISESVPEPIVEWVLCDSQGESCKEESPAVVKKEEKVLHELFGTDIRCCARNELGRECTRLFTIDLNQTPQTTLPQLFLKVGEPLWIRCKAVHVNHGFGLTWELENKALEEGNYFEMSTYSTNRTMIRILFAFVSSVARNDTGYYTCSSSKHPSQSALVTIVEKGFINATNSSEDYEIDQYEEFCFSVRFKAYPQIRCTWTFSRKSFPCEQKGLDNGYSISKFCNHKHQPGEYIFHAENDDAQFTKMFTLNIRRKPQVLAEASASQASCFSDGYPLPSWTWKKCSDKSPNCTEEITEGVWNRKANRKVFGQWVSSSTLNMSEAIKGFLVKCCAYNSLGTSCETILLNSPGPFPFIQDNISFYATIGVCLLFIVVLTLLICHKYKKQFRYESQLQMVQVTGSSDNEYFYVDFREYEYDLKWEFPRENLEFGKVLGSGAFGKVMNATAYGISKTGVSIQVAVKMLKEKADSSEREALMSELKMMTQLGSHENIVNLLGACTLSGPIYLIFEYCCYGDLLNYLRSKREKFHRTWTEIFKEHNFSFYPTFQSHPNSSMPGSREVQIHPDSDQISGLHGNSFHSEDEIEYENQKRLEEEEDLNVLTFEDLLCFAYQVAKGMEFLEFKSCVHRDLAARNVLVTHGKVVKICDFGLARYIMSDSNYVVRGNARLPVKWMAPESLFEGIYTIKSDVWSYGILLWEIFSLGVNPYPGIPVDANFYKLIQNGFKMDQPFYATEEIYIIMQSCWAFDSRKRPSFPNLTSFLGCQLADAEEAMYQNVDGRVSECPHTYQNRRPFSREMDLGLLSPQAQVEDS
Format: biochemical
Experimental: In order to determine the effect of compounds on FLT3 catalytic activity, kinase assays using recombinant enzymes and AlphaScreen® technology have been established. The catalytic activity of c-kit activity was also measured to determine selectivity of the compounds. When the kinases are catalytically active, they phosphorylate a biotinylated peptide substrate on tyrosine residues. Using AlphaScreen® technology, the ability of the compounds to affect the catalytic activity of the kinases can be measured quantitatively. The peptide substrate is immobilized by the AlphaScreen® Streptavidin Donor beads and, upon phosphorylation by a tyrosine kinase, can bind to AlphaScreen® Anti-Phosphotyrosine (PY20) Acceptor beads. Upon excitation of these beads with laser light at 680 nm, singlet oxygen is produced. This singlet oxygen is rapidly quenched, unless the AlphaScreen® Anti-Phosphotyrosine (PY20) Acceptor beads are in close proximity, in which case a proximity signal can be measured at 580 nm. In the presence of catalytic activity, there is a very strong proximity signal. Selective kinase inhibitors affect a decrease in this proximity signal through a decrease in tyrosine phosphorylation of the peptide substrate.
The assay was performed as summarized below.
Poly (Glu4-Tyr) Peptide, biotin conjugate [Biotin-GG(EEEEY)10EE] (SEQ ID NO: 4)
Final concentration=30 nM
Final concentration for IC50 determination=10 μM (FLT3-D835Y or FLT3-ITD) or 100 μM (c-KIT)
AlphaScreen® Phosphotyrosine (PY20) Assay Kit
Final concentration=10 μg/mL
Dilute compounds in DMSO to 20× final concentration.
Add 1 μl of compound to each well of 384 well reaction plate (Perkin Elmer #6005359).
Mix enzyme and Poly (Glu4-Tyr) Peptide substrate at 1.33× final concentration in assay buffer.
Mix ATP at 5× final concentration in assay buffer.
Add 15 μL enzyme/substrate mixture to the reaction plate.
Add 4 μL of ATP to the reaction plate.
Mix Streptavidin Donor beads at 6× final concentration in Stop/Detection buffer.
Add 5 μL Streptavidin Donor beads to the reaction plate. Centrifuge 1 minute, shake to mix, and incubate at room temperature for 20 minutes.
Mix Anti-Phosphotyrosine (PY20) Acceptor beads at 6× final concentration in Stop/Detection buffer.
Add 5 μL Anti-Phosphotyrosine (PY20) beads to the reaction plate.
Centrifuge 1 minute, shake to mix, and incubate at room temperature for 60 minutes.
Read plate on Wallac EnVision™ 2103 Multilabel Reader.

| IC50 [µM] | Structure (SMILES) |
| --- | --- |
| 0.0001 to 10 | O=C(c1cccc(-c2cnc3[nH]c(-c4ccccc4)cc3c2)n1)N1CCC(F)(F)C1 [Compound P-0093, (3,3-difluoropyrrolidin-1-yl)-[6-(2-phenyl-1H-pyrrolo[2,3-b]pyridin-5-yl)-2-pyridyl]methanone] |
| 0.0001 to 10 | COC1CCN(C(=O)c2cccc(-c3cnc4[nH]c(-c5ccccc5)cc4c3)n2)C1 (stereo not drawn) [Compound P-0095, (3-methoxypyrrolidin-1-yl)-[6-(2-phenyl-1H-pyrrolo[2,3-b]pyridin-5-yl)-2-pyridyl]methanone] |
| 0.0001 to 10 | CNC(=O)C1CCN(C(=O)c2cccc(-c3cnc4[nH]c(-c5ccccc5)cc4c3)n2)C1 (stereo not drawn) [Compound P-0096, N-methyl-1-[6-(2-phenyl-1H-pyrrolo[2,3-b]pyridin-5-yl)pyridine-2-carbonyl]pyrrolidine-3-carboxamide] |
| 0.0001 to 10 | O=C(c1cccc(-c2cnc3[nH]c(-c4ccccc4)cc3c2)n1)N1CCC(n2ccnc2)C1 (stereo not drawn) [Compound P-0097, (3-imidazol-1-ylpyrrolidin-1-yl)-[6-(2-phenyl-1H-pyrrolo[2,3-b]pyridin-5-yl)-2-pyridyl]methanone] |
| 0.0001 to 10 | N#CCCNC(=O)c1cccc(-c2cnc3[nH]c(-c4ccccc4)cc3c2)n1 [Compound P-0099, N-(2-cyanoethyl)-6-(2-phenyl-1H-pyrrolo[2,3-b]pyridin-5-yl)pyridine-2-carboxamide] |
| 0.0001 to 10 | CC(C)(C#N)CNC(=O)c1cccc(-c2cnc3[nH]c(-c4ccccc4)cc3c2)n1 [Compound P-0100, N-(2-cyano-2-methyl-propyl)-6-(2-phenyl-1H-pyrrolo[2,3-b]pyridin-5-yl)pyridine-2-carboxamide] |
| 0.0001 to 10 | N#CC1CCN(C(=O)c2cccc(-c3cnc4[nH]c(-c5ccccc5)cc4c3)n2)C1 (stereo not drawn) [Compound P-0105, 1-[6-(2-phenyl-1H-pyrrolo[2,3-b]pyridin-5-yl)pyridine-2-carbonyl]pyrrolidine-3-carbonitrile] |
| 0.0001 to 10 | CS(=O)(=O)N1CCC(NS(=O)(=O)c2cccc(-c3cnc4[nH]c(-c5ccccc5)cc4c3)n2)C1 (stereo not drawn) [Compound P-0107, N-(1-methylsulfonylpyrrolidin-3-yl)-6-(2-phenyl-1H-pyrrolo[2,3-b]pyridin-5-yl)pyridine-2-sulfonamide] |
| 0.0001 to 10 | N#C[C@H]1CCN(C(=O)c2cccc(-c3cnc4[nH]c(-c5ccccc5)cc4c3)n2)C1 [Compound P-0117, (3S)-1-[6-(2-phenyl-1H-pyrrolo[2,3-b]pyridin-5-yl)pyridine-2-carbonyl]pyrrolidine-3-carbonitrile] |
| 0.0001 to 10 | CN(CCC#N)C(=O)c1cccc(-c2cnc3[nH]c(-c4ccccc4)cc3c2)n1 [Compound P-0119, N-(2-cyanoethyl)-N-methyl-6-(2-phenyl-1H-pyrrolo[2,3-b]pyridin-5-yl)pyridine-2-carboxamide] |
| 0.0001 to 10 | N#CC1CCN(C(=O)c2cccc(-c3cnc4[nH]c(C5=CCCCC5)cc4c3)n2)C1 (stereo not drawn) [Compound P-0120, 1-[6-[2-(cyclohexen-1-yl)-1H-pyrrolo[2,3-b]pyridin-5-yl]pyridine-2-carbonyl]pyrrolidine-3-carbonitrile] |
| 0.0001 to 10 | N#CC1CCN(S(=O)(=O)c2cccc(-c3cnc4[nH]c(-c5ccccc5)cc4c3)n2)C1 (stereo not drawn) [Compound P-0121, 1-[[6-(2-phenyl-1H-pyrrolo[2,3-b]pyridin-5-yl)-2-pyridyl]sulfonyl]pyrrolidine-3-carbonitrile] |
| 0.0001 to 10 | N#CCCNC(=O)c1cccc(-c2cnc3[nH]c(-c4ccccc4)c(Cl)c3c2)n1 [Compound P-0125, 6-(3-chloro-2-phenyl-1H-pyrrolo[2,3-b]pyridin-5-yl)-N-(2-cyanoethyl)pyridine-2-carboxamide] |
| 0.0001 to 10 | CC(C)(C#N)CNC(=O)c1cccc(-c2cnc3[nH]c(-c4ccccc4)c(Br)c3c2)n1 [Compound P-0126, 6-(3-bromo-2-phenyl-1H-pyrrolo[2,3-b]pyridin-5-yl)-N-(2-cyano-2-methyl-propyl)pyridine-2-carboxamide] |
| 0.0001 to 10 | CC(C)(C#N)CNC(=O)c1cccc(-c2cnc3[nH]c(-c4ccccc4)c(I)c3c2)n1 [Compound P-0127, N-(2-cyano-2-methyl-propyl)-6-(3-iodo-2-phenyl-1H-pyrrolo[2,3-b]pyridin-5-yl)pyridine-2-carboxamide] |
| 0.0001 to 10 | Cc1cc(C#N)ccc1-c1cc2cc(-c3cccc(C(=O)N4CCC(C#N)C4)n3)cnc2[nH]1 (stereo not drawn) [Compound P-0130, 1-[6-[2-(4-cyano-2-methyl-phenyl)-1H-pyrrolo[2,3-b]pyridin-5-yl]pyridine-2-carbonyl]pyrrolidine-3-carbonitrile] |
| 0.0001 to 10 | N#Cc1cccc(-c2cc3cc(-c4cccc(C(=O)N5CCC(C#N)C5)n4)cnc3[nH]2)c1 (stereo not drawn) [Compound P-0133, 1-[6-[2-(3-cyanophenyl)-1H-pyrrolo[2,3-b]pyridin-5-yl]pyridine-2-carbonyl]pyrrolidine-3-carbonitrile] |
| 0.0001 to 10 | CC(C)(C)OC(=O)N1CC=C(c2cc3cc(-c4cccc(C(=O)N5CCC(C#N)C5)n4)cnc3[nH]2)C1 (stereo not drawn) [Compound P-0135, tert-butyl 3-[5-[6-(3-cyanopyrrolidine-1-carbonyl)-2-pyridyl]-1H-pyrrolo[2,3-b]pyridin-2-yl]-2,5-dihydropyrrole-1-carboxylate] |
| 0.0001 to 10 | N#CC1(NC(=O)c2cccc(-c3cnc4[nH]c(-c5ccccc5)c(Cl)c4c3)n2)CC1 [Compound P-0139, 6-(3-chloro-2-phenyl-1H-pyrrolo[2,3-b]pyridin-5-yl)-N-(1-cyanocyclopropyl)pyridine-2-carboxamide] |
| 0.0001 to 10 | N#CC1CCN(C(=O)c2cccc(-c3cnc4[nH]c(C5=CCOCC5)c(Cl)c4c3)n2)C1 (stereo not drawn) [Compound P-0142, 1-[6-[3-chloro-2-(3,6-dihydro-2H-pyran-4-yl)-1H-pyrrolo[2,3-b]pyridin-5-yl]pyridine-2-carbonyl]pyrrolidine-3-carbonitrile] |
| 0.0001 to 10 | N#CCCNC(=O)c1cccc(-c2cnc3[nH]c(-c4ccccc4)c(I)c3c2)n1 [Compound P-0143, N-(2-cyanoethyl)-6-(3-iodo-2-phenyl-1H-pyrrolo[2,3-b]pyridin-5-yl)pyridine-2-carboxamide] |
| 0.0001 to 10 | N#CC1(CNC(=O)c2cccc(-c3cnc4[nH]c(-c5ccccc5)c(Cl)c4c3)n2)CC1 [Compound P-0148, 6-(3-chloro-2-phenyl-1H-pyrrolo[2,3-b]pyridin-5-yl)-N-[(1-cyanocyclopropyl)methyl]pyridine-2-carboxamide] |
| 0.0001 to 10 | O=C(NC1(C(F)(F)F)CCCC1)c1cccc(-c2cnc3[nH]c(-c4ccccc4)cc3c2)n1 [Compound P-0149, 6-(2-phenyl1H-pyrrolo[2,3-b]pyridin-5-yl)-N-[1-(trifluoromethyl)cyclopentyl]pyridine-2-carboxamide] |
| 0.0001 to 10 | O=C(NC1(CO)CC1)c1cccc(-c2cnc3[nH]c(-c4ccccc4)cc3c2)n1 [Compound P-0151, N-[1-(hydroxymethyl)cyclopropyl]-6-(2-phenyl-1H-pyrrolo[2,3-b]pyridin-5-yl)pyridine-2-carboxamide] |
